# Assay results as given in patent publication US10597388B2, “Pyridazinone herbicides” (FMC CORPORATION, priority 2014, dated 2020).
# Legend:
# Assay in all cases: Test D controlled growth environment herbicide test, pre- and postemergence
# Format in all cases: in vivo
# kochia (Kochia scoparia) = test system: kochia (Kochia scoparia)
# Source text: (§1) Seeds of plant species selected from bluegrass (annual bluegrass, Poa annua), blackgrass (Alopecurus myosuroides), Canada thistle (Cirsium arvense), canarygrass (Phalaris minor), chickweed (common chickweed, Stellaria media), geranium, cutleaf (cutleaf geranium, Geranium dissectum), galium (catchweed bedstraw, Galium aparine), bromegrass, downy (downy bromegrass, Bromus tectorum), field poppy (Papaver rhoeas), field violet (Viola arvensis), foxtail, green (green foxtail, Setaria viridis), deadnettle (henbit deadnettle, Lamium amplexicaule), ryegrass, Italian (Italian ryegrass, Lolium multiflorum), kochia (Kochia scoparia), lambsquarters (Chenopodium album), oilseed rape (Brassica napus), pigweed (Amaranthus retroflexus), chamomile (scentless chamomile, Matricaria inodora), Russian thistle (Salsola kali), speedwell (bird's-eye speedwell, Veronica persica), barley, spring (spring barley, Hordeum vulgare), wheat, spring (spring wheat, Triticum aestivum), buckwheat, wild (wild buckwheat, Polygonum convolvulus), mustard, wild (wild mustard, Sinapis arvensis), oat, wild (wild oat, Avena fatua), radish, wild (wild radish, Raphanus raphanistrum), windgrass (Apera spica-venti), barley, winter (winter barley, Hordeum vulgare), and wheat, winter (winter wheat, Triticum aestivum) were planted into a silt loam soil and treated preemergence with test chemicals formulated in a non-phytotoxic solvent mixture which included a surfactant.
# (§2) At the same time, these species were planted in pots containing Redi-Earth® planting medium (Scotts Company, 14111 Scottslawn Road, Marysville, Ohio 43041) comprising spaghnum peat moss, vermiculite, wetting agent and starter nutrients and treated with postemergence applications of the test chemicals formulated in the same manner. Plants ranged in height from 2 to 18 cm (1- to 4-leaf stage). Treated plants and controls were maintained in a controlled growth environment for 14 to 21 d after which time all species were compared to controls and visually evaluated. Plant response ratings, summarized in Table D, are based on a scale of 0 to 100 where 0 is no effect and 100 is complete control. A dash (-) response means no test result.
# [1] = test system: ryegrass, Italian (Italian ryegrass, Lolium multiflorum)
# Source text: as §1, §2
# [2] = test system: foxtail, green (green foxtail, Setaria viridis)
# Source text: as §1, §2
# [3] = test system: oilseed rape (Brassica napus)
# Source text: as §1, §2
# [4] = test system: windgrass (Apera spica-venti)
# Source text: as §1, §2
# [5] = test system: deadnettle (henbit deadnettle, Lamium amplexicaule)
# Source text: as §1, §2
# [6] = test system: blackgrass (Alopecurus myosuroides)
# Source text: as §1, §2
# [7] = test system: galium (catchweed bedstraw, Galium aparine)
# Source text: as §1, §2
# [8] = test system: bromegrass, downy (downy bromegrass, Bromus tectorum)
# Source text: as §1, §2
# [9] = test system: speedwell (bird's-eye speedwell, Veronica persica)
# Source text: as §1, §2
# [10] = test system: mustard, wild (wild mustard, Sinapis arvensis)
# Source text: as §1, §2
# [11] = test system: buckwheat, wild (wild buckwheat, Polygonum convolvulus)
# Source text: as §1, §2
# [12] = test system: chamomile (scentless chamomile, Matricaria inodora)
# Source text: as §1, §2
# [13] = test system: pigweed (Amaranthus retroflexus)
# Source text: as §1, §2
# [14] = Postemergence, 31 g ai/ha, scale 0 to 100 (0 no effect, 100 complete control)
# [15] = Postemergence, 125 g ai/ha, visual rating on scale 0 (no effect) to 100 (complete control), 14 to 21 d
# [16] = Postemergence, 250 g ai/ha, scale 0 to 100 (0 no effect, 100 complete control)
# [17] = Preemergence, 62 g ai/ha, scale 0 to 100 (0 no effect, 100 complete control)
# [18] = Preemergence, 125 g ai/ha, scale 0 to 100 (0 no effect, 100 complete control)
# [19] = Preemergence, 250 g ai/ha, scale 0 to 100, 0 no effect, 100 complete control
# [20] = postemergence, 62 g ai/ha, scale 0 to 100, 0 no effect, 100 complete control
smiles,measurement,setting,value
"Cc1cc(C)c2sc(C)c(-c3c(O)c(C)nn(C)c3=O)c2c1 [Compound 2, 5-hydroxy-2,6-dimethyl-4-(2,5,7-trimethylbenzo[b]thien-3-yl)-3(2H)-pyridazinone]",Kochia plant response rating,kochia (Kochia scoparia); [14],50
same,"Plant response rating, Kochia",kochia (Kochia scoparia); [15],65
same,"Plant response rating, Kochia",kochia (Kochia scoparia); [16],70
same,"Plant response rating (scale of 0 to 100), Kochia","kochia (Kochia scoparia); Preemergence, 31 g ai/ha",0
same,"Plant response rating, Kochia",kochia (Kochia scoparia); [17],0
same,"Plant response rating, Kochia",kochia (Kochia scoparia); [18],0
same,"Plant response rating, Kochia",kochia (Kochia scoparia); [19],20
same,"Plant response rating, Kochia",kochia (Kochia scoparia); [20],60
same,"Ryegrass, Italian plant response rating",[1]; [14],70
same,"Plant response rating, Ryegrass, Italian",[1]; [15],85
same,"Plant response rating, Ryegrass, Italian",[1]; [16],90
same,"Plant response rating (scale of 0 to 100), Ryegrass, Italian","[1]; Preemergence, 31 g ai/ha",85
same,"Plant response rating, Ryegrass, Italian",[1]; [17],95
same,"Plant response rating, Ryegrass, Italian",[1]; [18],100
same,"Plant response rating, Ryegrass, Italian",[1]; [19],100
same,"Plant response rating, Ryegrass, Italian",[1]; [20],80
same,"Foxtail, Green plant response rating",[2]; [14],70
same,"Plant response rating, Foxtail, Green",[2]; [15],95
same,"Plant response rating, Foxtail, Green",[2]; [16],100
same,"Plant response rating (scale of 0 to 100), Foxtail, Green","[2]; Preemergence, 31 g ai/ha",65
same,"Plant response rating, Foxtail, Green",[2]; [17],100
same,"Plant response rating, Foxtail, Green",[2]; [18],100
same,"Plant response rating, Foxtail, Green",[2]; [19],100
same,"Plant response rating, Foxtail, Green",[2]; [20],80
same,Oilseed Rape plant response rating,[3]; [14],20
same,"Plant response rating, Oilseed Rape",[3]; [15],55
same,"Plant response rating, Oilseed Rape",[3]; [16],70
same,"Plant response rating (scale of 0 to 100), Oilseed Rape","[3]; Preemergence, 31 g ai/ha",0
same,"Plant response rating, Oilseed Rape",[3]; [17],0
same,"Plant response rating, Oilseed Rape",[3]; [18],20
same,"Plant response rating, Oilseed Rape",[3]; [19],40
same,"Plant response rating, Oilseed Rape",[3]; [20],45
same,Windgrass plant response rating,[4]; [14],10
same,"Plant response rating, Windgrass",[4]; [15],55
same,"Plant response rating, Windgrass",[4]; [16],70
same,"Plant response rating (scale of 0 to 100), Windgrass","[4]; Preemergence, 31 g ai/ha",60
same,"Plant response rating, Windgrass",[4]; [17],75
same,"Plant response rating, Windgrass",[4]; [18],95
same,"Plant response rating, Windgrass",[4]; [19],100
same,"Plant response rating, Windgrass",[4]; [20],25
same,Deadnettle plant response rating,[5]; [14],60
same,"Plant response rating, Deadnettle",[5]; [15],60
same,"Plant response rating, Deadnettle",[5]; [16],60
same,"Plant response rating (scale of 0 to 100), Deadnettle","[5]; Preemergence, 31 g ai/ha",0
same,"Plant response rating, Deadnettle",[5]; [17],0
same,"Plant response rating, Deadnettle",[5]; [18],0
same,"Plant response rating, Deadnettle",[5]; [19],55
same,"Plant response rating, Deadnettle",[5]; [20],60
same,Blackgrass plant response rating,[6]; [14],65
same,"Plant response rating, Blackgrass",[6]; [15],80
same,"Plant response rating, Blackgrass",[6]; [16],90
same,"Plant response rating (scale of 0 to 100), Blackgrass","[6]; Preemergence, 31 g ai/ha",65
same,"Plant response rating, Blackgrass",[6]; [17],75
same,"Plant response rating, Blackgrass",[6]; [18],85
same,Blackgrass plant response rating,[6]; [19],90
same,"Plant response rating, Blackgrass",[6]; [20],70
same,Galium plant response rating,[7]; [14],85
same,"Plant response rating, Galium",[7]; [15],100
same,"Plant response rating, Galium",[7]; [16],100
same,"Plant response rating (scale of 0 to 100), Galium","[7]; Preemergence, 31 g ai/ha",100
same,"Plant response rating, Galium",[7]; [17],85
same,"Plant response rating, Galium",[7]; [18],100
same,"Plant response rating, Galium",[7]; [19],100
same,"Plant response rating, Galium",[7]; [20],100
same,"Bromegrass, Downy plant response rating",[8]; [14],10
same,"Plant response rating, Bromegrass, Downy",[8]; [15],10
same,"Plant response rating, Bromegrass, Downy",[8]; [16],20
same,"Plant response rating (scale of 0 to 100), Bromegrass, Downy","[8]; Preemergence, 31 g ai/ha",10
same,"Plant response rating, Bromegrass, Downy",[8]; [17],50
same,"Plant response rating, Bromegrass, Downy",[8]; [18],65
same,"Plant response rating, Bromegrass, Downy",[8]; [19],70
same,"Plant response rating, Bromegrass, Downy",[8]; [20],10
same,Speedwell plant response rating,[9]; [14],50
same,"Plant response rating, Speedwell",[9]; [15],80
same,"Plant response rating, Speedwell",[9]; [16],90
same,"Plant response rating (scale of 0 to 100), Speedwell","[9]; Preemergence, 31 g ai/ha",55
same,"Plant response rating, Speedwell",[9]; [18],90
same,"Plant response rating, Speedwell",[9]; [19],100
same,"Plant response rating, Speedwell",[9]; [20],65
same,"Mustard, Wild plant response rating",[10]; [14],25
same,"Plant response rating, Mustard, Wild",[10]; [15],40
same,"Plant response rating, Mustard, Wild",[10]; [16],55
same,"Plant response rating (scale of 0 to 100), Mustard, Wild","[10]; Preemergence, 31 g ai/ha",0
same,"Plant response rating, Mustard, Wild",[10]; [17],0
same,"Plant response rating, Mustard, Wild",[10]; [18],5
same,"Plant response rating, Mustard, Wild",[10]; [19],40
same,"Plant response rating, Mustard, Wild",[10]; [20],35
same,"Buckwheat, Wild plant response rating",[11]; [14],85
same,"Plant response rating, Buckwheat, Wild",[11]; [15],100
same,"Plant response rating, Buckwheat, Wild",[11]; [16],100
same,"Plant response rating, Buckwheat, Wild",[11]; [17],10
same,"Plant response rating, Buckwheat, Wild",[11]; [18],100
same,"Plant response rating, Buckwheat, Wild",[11]; [19],100
same,"Plant response rating, Buckwheat, Wild",[11]; [20],95
same,Chamomile plant response rating,[12]; [14],70
same,"Plant response rating, Chamomile",[12]; [15],90
same,"Plant response rating, Chamomile",[12]; [16],100
same,"Plant response rating (scale of 0 to 100), Chamomile","[12]; Preemergence, 31 g ai/ha",80
same,"Plant response rating, Chamomile",[12]; [17],100
same,"Plant response rating, Chamomile",[12]; [18],95
same,"Plant response rating, Chamomile",[12]; [19],100
same,"Plant response rating, Chamomile",[12]; [20],80
same,Pigweed plant response rating,[13]; [14],70
same,"Plant response rating, Pigweed",[13]; [15],85
same,"Plant response rating, Pigweed",[13]; [16],95
same,"Plant response rating (scale of 0 to 100), Pigweed","[13]; Preemergence, 31 g ai/ha",25
same,"Plant response rating, Pigweed",[13]; [17],50
same,"Plant response rating, Pigweed",[13]; [18],65
same,"Plant response rating, Pigweed",[13]; [19],100
same,"Plant response rating, Pigweed",[13]; [20],80
